Literature values in patent US8877779B2 (priority 2007, dated 2014).

Conditions: Proc. Natl. Acad. Sci. U.S.A. 97: 4938-4943, 2000

Compound: O=C1NCN(c2ccccc2)C12CCN([C@@H]1CC[C@H]3CCCc4cccc1c43)CC2 [Ro64-6198]
- bioavailability (BA): 4%
